Consider 29 molecules from patent US8481732B2 (Incyte Corporation, priority 2009, dated 2013).

For the test, the target named is T1, histamine H4 receptor (Homo sapiens, UniProt Q9H3N8).
T1 construct: expressed in transfected cells; host or cells: HEK293SFM cells (membrane preparation)
T1 sequence (Q9H3N8 whole entry): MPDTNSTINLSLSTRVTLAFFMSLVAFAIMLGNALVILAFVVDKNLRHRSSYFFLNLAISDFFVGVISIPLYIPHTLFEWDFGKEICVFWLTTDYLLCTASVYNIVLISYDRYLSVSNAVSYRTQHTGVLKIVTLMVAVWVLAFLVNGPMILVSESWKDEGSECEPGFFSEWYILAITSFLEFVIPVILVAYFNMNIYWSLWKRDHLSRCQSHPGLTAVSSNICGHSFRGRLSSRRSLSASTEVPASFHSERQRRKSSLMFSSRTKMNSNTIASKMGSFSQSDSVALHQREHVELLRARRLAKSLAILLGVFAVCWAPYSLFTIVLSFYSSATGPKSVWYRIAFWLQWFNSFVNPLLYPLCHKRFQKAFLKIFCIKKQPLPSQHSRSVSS
Nature of the test: H4 Membrane Binding Assay (3H-Histamine displacement). The following applies: membranes of recombinant HEK293SFM cells, 10 nM 3H-Histamine, 1.5 hr at room temperature. In a few lines:
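Radioligand is [3H]-histamine; 1000× unlabeled ligand sets nonspecific binding. Receptor source: membrane pellets from HEK293SFM cells carrying human H4 or other histamine subtypes (human H1–H3, mouse H4), in 50 mM Tris-HCl pH 7.5. Filtration through PEI-treated GF/B filters, then scintillation counting.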
Consider `CN1CCN(c2nc(N)nc3cc(C(=O)Nc4cccc(Cl)c4)ccc23)CC1` [Example 27, 2-Amino-N-(3-chlorophenyl)-4-(4-methylpiperazin-1-yl)quinazoline-7-carboxamide], for which the half-inhibitory concentration (IC50) (as a rule, the concentration at which inhibition is half-maximal) stood at 896 nM.

`COc1ccc(Oc2cccc(CNC(=O)c3ccc4c(N5CCN(C)CC5)nc(N)nc4c3)c2)cc1` [Example 178, 2-Amino-N-[3-(4-methoxyphenoxy)benzyl]-4-(4-methylpiperazin-1-yl)quinazoline-7-carboxamide]: the IC50 worked out at 7.5 nM.

On to `CN1CCN(c2cc(-c3ccc4c(c3)CN(C(=O)NC3CCCc5ccccc53)CC4)nc(N)n2)CC1` (centres unmarked) [Example 83, 7-[2-Amino-6-(4-methylpiperazin-1-yl)pyrimidin-4-yl]-N-(1,2,3,4-tetrahydronaphthalen-1-yl)-3,4-dihydroisoquinoline-2(1H)-carboxamide], for which the IC50 is 38 nM.

Take `CC(C)c1ccc(CC(NC(=O)c2ccc3c(N4CCN(C)CC4)nc(N)nc3c2)C(=O)N(C)C)cc1` (centres unmarked) [Example 149, 2-Amino-N-[2-(dimethylamino)-1-(4-isopropylbenzyl)-2-oxoethyl]-4-(4-methylpiperazin-1-yl)quinazoline-7-carboxamide]: the IC50 was 40 nM.

On to `Cc1cc2c(cc1-c1cc(N3CCN(C)CC3)nc(N)n1)CN(C(=O)NC1CCCCC1)CC2` [Example 78, 7-[2-Amino-6-(4-methylpiperazin-1-yl)pyrimidin-4-yl]-N-cyclohexyl-6-methyl-3,4-dihydroisoquinoline-2(1H)-carboxamide], for which the IC50 came out at 250 nM.

`CN1CCN(c2cc(-c3ccc4c(c3)CN(C(=O)CC3CCN(C(=O)C5CC5)CC3)CC4)nc(N)n2)CC1` [Example 72, 4-(2-{[1-(Cyclopropylcarbonyl)piperidin-4-yl]acetyl}-1,2,3,4-tetrahydroisoquinolin-7-yl)-6-(4-methylpiperazin-1-yl)pyrimidin-2-amine]: the IC50 stood at 419 nM.

Consider `Cc1ccc([C@H](C)NC(=O)c2ccc3c(N4CCN(C)CC4)nc(N)nc3c2)cc1` [Example 32, 2-Amino-N-[(1S)-1-(4-methylphenyl)ethyl]-4-(4-methylpiperazin-1-yl)quinazoline-7-carboxamide], for which the IC50 is 334 nM.

`CN1CCN(c2cc(-c3ccc4c(c3)CN(C(=O)C(F)(F)c3ccccc3)CC4)nc(N)n2)CC1` [Example 61, 4-{2-[Difluoro(phenyl)acetyl]-1,2,3,4-tetrahydroisoquinolin-7-yl}-6-(4-methylpiperazin-1-yl)pyrimidin-2-amine]: the IC50 worked out at 70 nM.

In the case of `CN1CCN(c2cc(-c3ccc4c(c3)CN(C(=O)OC3CCN(C(=O)NC5CCCC5)CC3)CC4)nc(N)n2)CC1` [Example 70, 1-[(Cyclopentylamino)carbonyl]piperidin-4-yl 7-[2-amino-6-(4-methylpiperazin-1-yl)pyrimidin-4-yl]-3,4-dihydroisoquinoline-2(1H)-carboxylate], the IC50 worked out at 361 nM.

`CO[C@H]1CC[C@H](NC(=O)N2CCc3ccc(-c4cc(N5CCN(C)CC5)nc(N)n4)cc3C2)CC1` [Example 56, 7-[2-Amino-6-(4-methylpiperazin-1-yl)pyrimidin-4-yl]-N-(trans-4-methoxycyclohexyl)-3,4-dihydroisoquinoline-2(1H)-carboxamide]: the IC50 was determined as 210 nM.

On to `CN1CCN(c2cc(-c3ccc4c(c3)CN(C(=O)Nc3ccc(C#N)nc3)CC4)nc(N)n2)CC1` [Example 44, 7-[2-Amino-6-(4-methylpiperazin-1-yl)pyrimidin-4-yl]-N-(6-cyanopyridin-3-yl)-3,4-dihydroisoquinoline-2(1H)-carboxamide], for which the IC50 amounted to 118 nM.

`CCOC(=O)N1CCC(OC(=O)N2CCc3ccc(-c4cc(N5CCN(C)CC5)nc(N)n4)cc3C2)CC1` [Example 116, 1-(Ethoxycarbonyl)piperidin-4-yl 7-[2-amino-6-(4-methylpiperazin-1-yl)pyrimidin-4-yl]-3,4-dihydroisoquinoline-2(1H)-carboxylate]: the IC50 was 38 nM.

As for `CN1CCN(c2cc(-c3ccc4c(c3)CN(S(=O)(=O)c3ccccc3)CC4)nc(N)n2)CC1` [Example 4, 4-(4-Methylpiperazin-1-yl)-6-[2-(phenylsulfonyl)-1,2,3,4-tetrahydroisoquinolin-7-yl]pyrimidin-2-amine], the half-inhibitory concentration (IC50) was found to be 267 nM.

For `CN1CCN(c2cc(-c3ccc4c(c3)CN(C(=O)CC3(C#N)CCC3)CC4)nc(N)n2)CC1` [Example 120, 1-{2-[7-[2-Amino-6-(4-methylpiperazin-1-yl)pyrimidin-4-yl]-3,4-dihydroisoquinolin-2(1)-yl]-2-oxoethyl}cyclobutanecarbonitrile], the IC50 is 34 nM.

As to `Cc1ccnc(Oc2cccc(CNC(=O)c3ccc4c(N5CCN(C)CC5)nc(N)nc4c3)c2)c1` [Example 182, 2-Amino-4-(4-methylpiperazin-1-yl)-N-{3-[(4-methylpyridin-2-yl)oxy]benzyl}quinazoline-7-carboxamide], the IC50 was 56 nM.

`CN1CCN(c2nc(N)nc3cc(C(=O)N[C@@H](Cc4ccc(-c5ccc(C#N)cn5)cc4)C(=O)N(C)C)ccc23)CC1` [Example 155, 2-Amino-N-[(1S)-1-[4-(5-cyanopyridin-2-yl)benzyl]-2-(dimethylamino)-2-oxoethyl]-4-(4-methylpiperazin-1-yl)quinazoline-7-carboxamide]: the IC50 came out at 55 nM.

In the case of `CN1CCN(c2cc(-c3ccc4c(c3)CN(C(=O)NC35CC6CC(CC(C6)C3)C5)CC4)nc(N)n2)CC1` [Example 59, N-1-Adamantyl-7-[2-amino-6-(4-methylpiperazin-1-yl)pyrimidin-4-yl]-3,4-dihydroisoquinoline-2(1H)-carboxamide], the IC50 amounted to 19 nM.

Regarding `COC(=O)c1ccc(COc2cccc(CNC(=O)c3ccc4c(N5CCN(C)CC5)nc(N)nc4c3)c2)cc1` [Example 193, Methyl 4-({3-[({[2-amino-4-(4-methylpiperazin-1-yl)quinazolin-7-yl]carbonyl}amino)methyl]phenoxy}methyl)benzoate], the IC50 is 7.2 nM.

Regarding `CN1CCN(c2nc(N)nc3cc(C(=O)N4CCc5c(cccc5OCc5cccc(C#N)c5)C4)ccc23)CC1` [Example 207, 3((2-(2-Amino-4-(4-methylpiperazin-1-yl)quinazoline-7-carbonyl)-1,2,3,4-tetrahydroisoquinolin-5-yloxy)methyl)benzonitrile], the concentration for half-maximal inhibition (IC50) is 36 nM.

As for `CC(C)[C@@H](C)NC(=O)N1CCc2ccc(-c3cc(N4CCN(C)CC4)nc(N)n3)cc2C1` [Example 98, 7-[2-Amino-6-(4-methylpiperazin-1-yl)pyrimidin-4-yl]-N-[(1R)-1,2-dimethylpropyl]-3,4-dihydroisoquinoline-2(1H)-carboxamide], the IC50 turned out to be 61 nM.

Regarding `CN1CCN(c2nc(N)nc3cc(C(=O)NC(Cc4ccc(-c5cccc(F)c5F)nc4)C(=O)N(C)C)ccc23)CC1` (centres unmarked) [Example 163, 2-Amino-N-[1-{[6-(2,3-difluorophenyl)pyridin-3-yl]methyl}-2-(dimethylamino)-2-oxoethyl]-4-(4-methylpiperazin-1-yl)quinazoline-7-carboxamide], the IC50 came to 66 nM.

As for `COC(=O)c1ccc(COc2ccc3c(c2)C(NC(=O)c2ccc4c(N5CCN(C)CC5)nc(N)nc4c2)CCC3)cc1` (centres unmarked) [Example 206, Methyl 4-((8-(2-amino-4-(4-methylpiperazin-1-yl)quinazoline-7-carboxamido)-5,6,7,8-tetrahydronaphthalen-2-yloxy)methyl)benzoate], the concentration for half-maximal inhibition (IC50) is 24 nM.

In the case of `CN1CCN(c2nc(N)nc3cc(C(=O)NC(Cc4cccc(Oc5cc(Cl)cc(Cl)c5)c4)C(=O)N(C)C)ccc23)CC1` (centres unmarked) [Example 167, 2-Amino-N-[1-[3-(3,5-dichlorophenoxy)benzyl]-2-(dimethylamino)-2-oxoethyl]-4-(4-methylpiperazin-1-yl)quinazoline-7-carboxamide], the concentration for half-maximal inhibition (IC50) was determined as 15 nM.

In the case of `CN1CCN(c2cc(-c3ccc4c(c3)CN(C(=O)Nc3ccc(Oc5ccccc5)cc3)CC4)nc(N)n2)CC1` [Example 96, 7-[2-Amino-6-(4-methylpiperazin-1-yl)pyrimidin-4-yl]-N-(4-phenoxyphenyl)-3,4-dihydroisoquinoline-2(1H)-carboxamide], the IC50 is 52 nM.

In the case of `CN1CCN(c2nc(N)nc3cc(C(=O)NC(Cc4ccc5c(c4)OC(F)(F)O5)C(=O)N(C)C)ccc23)CC1` (single isomer, unassigned) [Example 145B, 2-Amino-N-(3-(2,2-difluorobenzo[d][1,3]dioxol-5-yl)-1-(dimethylamino)-1-oxopropan-2-yl)-4-(4-methylpiperazin-1-yl)quinazoline-7-carboxamide], the IC50 was found to be 26 nM.

Consider `COc1cccc(COc2cccc3c2CCN(C(=O)c2ccc4c(N5CCN(C)CC5)nc(N)nc4c2)C3)c1` [Example 208, (2-Amino-4-(4-methylpiperazin-1-yl)quinazolin-7-yl)(5-(3-methoxybenzyloxy)-3,4-dihydroisoquinolin-2(1H)-yl)methanone], for which the half-inhibitory concentration (IC50) stood at 24 nM.

For the molecule `CC(C)Oc1ccc(NC(=O)N2CCc3ccc(-c4cc(N5CCN(C)CC5)nc(N)n4)cc3C2)cc1` [Example 92, 7-[2-Amino-6-(4-methylpiperazin-1-yl)pyrimidin-4-yl]-N-(4-isopropoxyphenyl)-3,4-dihydroisoquinoline-2(1H)-carboxamide], the half-maximal inhibitory concentration (IC50) was found to be 50 nM.

Consider `CN1CCN(c2nc(N)nc3cc(C(=O)NCC(=O)OCc4ccccc4)ccc23)CC1` [Example 132, Benzyl({[2-amino-4-(4-methylpiperazin-1-yl)quinazolin-7yl]carbonyl}amino)acetate], for which the IC50 turned out to be 139 nM.

As to `CN1CCN(c2nc(N)nc3cc(C(=O)N[C@@H](Cc4ccc(-c5cccc(C#N)c5)cc4)C(=O)N(C)C)ccc23)CC1` [Example 154, 2-Amino-N-[(1S)-1-[(3′-cyanobiphenyl-4-yl)methyl]-2-(dimethylamino)-2-oxoethyl]-4-(4-methylpiperazin-1-yl)quinazoline-7-carboxamide], the IC50 is 14 nM.
